Test results: patent US7183267B2, “β-lactamase inhibitors and methods of use thereof” (priority 2003, dated 2007)

How the values were obtained:
[1] = system: methicillin resistant S. aureus from Stanford University Hospital (MRSA-SU); assay: MIC assay, broth microdilution, MRSA-SU; format: cell-based; details: Staphylococcus aureus; MRSA-SU; substance alone; at least 24 hours at 35° C.; read-out: MIC
From the text: (2) methicillin resistant S. aureus from Stanford University Hospital Clinical Microbiology/Virology Laboratory (MRSA-SU). […] Such Staphylococci are also resistant to all penicillins, and all cephalosporins, in addition to all β-lactamase inhibitor combinations (including ampicillin/sulbactarn, amoxicillin/clavulanic acid, piperacillin/tazobactam), imipenem, and meropenem; and
The strains were processed according to procedures recommended by ATCC, or procedures that are routinely used. Single colonies of each organism were picked for purification to generate pure working cultures. Prior to each experiment each strain was subcultured on a fresh Mueller-Hinton agar plate (MHA).
Inocula for the MIC assays were prepared by transferring a tiny portion of one colony from a MHA plate to 2 ml of Mueller-Hinton broth (MHB) such that the estimated cell density was about 10^7 colony forming unit (CFU)/ml. This cell suspension was then further diluted 10-fold (to 10^6 CFU/ml) by transferring the 2 ml cell suspension to 18 ml of MHB. Addition of 50 μl of this dilute cell suspension to 50 μl of growth medium yielded the desired cell density, namely about 5×10^4 CFU/well, or 5×10^5 CFU/ml.
The MIC value of oxacillin was determined using the broth microdilution procedure recommended by the National Committee of Clinical Laboratory Standards (NCCLS, 2000).
The MIC experiments were performed in duplicate in 96-well microtiter plates using MHB. A stock solution of 2.6 mg/0.5 ml was prepared in dimethylsulfoxide (DMSO). A total of 8 two-fold serial dilutions were made with DMSO. Initial oxacillin doses used were (μg/ml): 64, 32, 16, 8, 4, 2, 1, and 0.5. Doses were adjusted in the confirmatory experiment, if needed, in order to establish an actual MIC value.
(§1) To each well of a 96 well microtiter plate was added 47.5 μl of MHB. A volume of 2.5 μl of each dilution of oxacillin was then transferred to appropriate wells containing the medium. All wells, except the sterility control wells, were then inoculated with 50 μl of a diluted cell suspension to give a final volume of 100 μl and a final cell density of 5×10^4 CFU/well. The volume in the sterility control wells was adjusted to 100 μl with MHB. A sterile pipette tip was used to mix the contents of each well (one tip was used going from the low to the high concentration in the same column). The microtiter plates were covered with the lids and were placed in large Stratagene Big Blue plates (Cat. # 400041). Four large kimwipes moistened with tap water were placed near the edges of the Stratagene plates to prevent evaporation of the medium. The microtiter plates were incubated for at least 24 hours at 35° C. The plates were then evaluated for growth in each well. Controls included: medium sterility and negative control (medium and bacteria only).
The procedure used to determine the antimicrobial activity of the compounds of the present invention was identical to the broth microdilution procedure described above with the exception of the preparation of the stock solutions. Stock solution at concentration of 40.96 mg/0.5 ml was prepared in DMSO for each of the compounds. A total of 8 two-fold dilutions were then made in DMSO. A volume of 2.5 μl of each dilution was delivered to appropriate wells. The initial doses used were (μg/ml): 512, 256, 128, 64, 32, 16, 8, and 4.
(§2) A numerical code was used to evaluate the extent of growth as indicated below. • 0: absence of growth • 1: barely visible (faint) growth • 2: fair growth but less than the negative solvent control • 3: growth is equivalent to the negative solvent control.
(§3) The lowest dose at which no visible growth is observed was determined to be the MIC value.
MIC assays were performed with oxacillin and the four compounds. Each of the compounds was tested at the following 8 doses (μg/ml): 512, 256, 128, 64, 32, 16, 8, and 4. Oxacillin was tested at the following 8 doses (μg/ml): 64, 32, 16, 8, 4, 2, 1, and 0.5.

[2] = system: methicillin resistant S. aureus from Stanford University Hospital (MRSA-SU); assay: Matrix system: oxacillin plus β-lactamase inhibitor, MRSA-SU; format: cell-based; parameters: key to growth score: 0 = no growth, 3 = growth equal to negative solvent control
Protocol: as §1, §2, §3
The effect of the four compounds of the present invention on oxacillin resistance of the MRSA strains was determined using a matrix system. The β-lactamase inhibitors were tested at 5 doses against up to eleven concentrations of oxacillin. […] A 96-well microtiter plate was used for the matrix system. The procedure was identical to that described above for the MIC determination, with the exception that both oxacillin and one each of the β-lactamase inhibitors was added, 2.5 μl each, to the wells prior to addition of the test organisms.
Matrix Study:Oxacillin and Compound FL201 with MRSA-SU
Matrix Study: Oxacillin and Compound FL202 with MRSA-SU

Which MIC [1] does the source give for `Cc1onc(-c2ccccc2)c1C(=O)N[C@@H]1C(=O)N2[C@@H]1SC(C)(C)[C@@H]2C(=O)O` [Oxacillin, reference compound] here?
Its MIC is over 64 µg/mL.

And the MIC ([2]; Staphylococcus aureus, 24 h, Table 17, oxacillin alone, F1201 0)?
Its MIC is 256 µg/mL.

And the growth score ([2]; Table 17, oxacillin 0.064 μg/ml, F1201 0)?
Its growth score is 3.

What about the growth score ([2]; Table 17, oxacillin 0.125 μg/ml, F1201 0) of the same compound?
Its growth score is 3.

What about the growth score ([2]; Table 17, oxacillin 0.25 μg/ml, F1201 0) of the same compound?
Its growth score is 3.

What about the growth score ([2]; Table 17, oxacillin 0.5 μg/ml, F1201 0) of the same compound?
The growth score was 3.

And the growth score ([2]; Table 17, oxacillin 1 μg/ml, F1201 0)?
Its growth score is 3.

What about the growth score ([2]; Table 17, oxacillin 2 μg/ml, F1201 0) of the same compound?
The growth score was 3.

And the growth score ([2]; Table 17, oxacillin 4 μg/ml, F1201 0)?
Its growth score is 3.

And the growth score ([2]; Table 17, oxacillin 16 μg/ml, F1201 0)?
The growth score was 3.

What about the growth score ([2]; Table 17, oxacillin 64 μg/ml, F1201 0) of the same compound?
Its growth score is 2.

What about the growth score ([2]; Table 17, oxacillin 128 μg/ml, F1201 0) of the same compound?
The growth score was 1.

And the growth score ([2]; Table 17, oxacillin 256 μg/ml, F1201 0)?
The growth score was 0.

And the growth score ([2]; Table 18, oxacillin 0.064 μg/ml, F1202 0)?
The growth score was 3.

And the growth score ([2]; Table 18, oxacillin 0.125 μg/ml, F1202 0)?
The growth score was 3.

What about the growth score ([2]; Table 18, oxacillin 0.25 μg/ml, F1202 0) of the same compound?
Its growth score is 3.

And the growth score ([2]; Table 18, oxacillin 0.5 μg/ml, F1202 0)?
The growth score was 3.

And the growth score ([2]; Table 18, oxacillin 1 μg/ml, F1202 0)?
Its growth score is 3.

What about the growth score ([2]; Table 18, oxacillin 2 μg/ml, F1202 0) of the same compound?
The growth score was 3.

And the growth score ([2]; Table 18, oxacillin 4 μg/ml, F1202 0)?
The growth score was 3.

What about the growth score ([2]; Table 18, oxacillin 16 μg/ml, F1202 0) of the same compound?
The growth score was 3.

And the growth score ([2]; Table 18, oxacillin 64 μg/ml, F1202 0)?
Its growth score is 2.

What about the growth score ([2]; Table 18, oxacillin 128 μg/ml, F1202 0) of the same compound?
The growth score was 2.

And the growth score ([2]; Table 18, oxacillin 256 μg/ml, F1202 0)?
Its growth score is 0.

What about the “MIC (oxacillin)” value ([2]; Table 18, oxacillin alone, F1202 0) of the same compound?
The value was 256 µg/mL.
